The target of the test is P70S6K (T412E mutant) (Homo sapiens (Human), UniProt P23443, T412E). Kind of test: P70S6K enzyme assay. The class given is biochemical. The settings on record: 3 nM P70S6K T412E mutant, 24 μM ATP, 1 μM FITC-AHA-AKRRRLSSLRA-OH substrate peptide, 90 min at 25° C. As to the method:
The IC50 values reported for the compounds in the Experimental section were derived from the following protocol for the p70S6K enzyme assay.
P70S6K inhibitor compounds were diluted and plated in 96 well plates. A reaction mixture including the following components was then added to the compound plate to initiate the enzyme reaction; P70S6K (3 nM, T412E mutant, Millipore) was mixed with 24 μM ATP in an assay buffer containing 100 mM Hepes (pH 7.5), 5 mM MgCl2, 1 mM DTT, 0.015% Brij and 1 μM of the substrate peptide FITC-AHA-AKRRRLSSLRA-OH (derived from the S6 ribosomal protein sequence, FITC=fluorescein isothiocyanate, AHA=6-aminohexanoic acid). The reaction was incubated for 90 min at 25° C., before the addition of 10 mM EDTA to stop the reaction. The proportion of substrate and product (phosphorylated) peptide was analysed on a Caliper Life Sciences Lab Chip 3000, using a pressure of −1.4 psi, and upstream and downstream voltages of −3000 and −700 respectively. Product peaks were resolved before substrate peaks on the resulting chromatograms.

The values that follow come from patent US9321760B2 (Merck Patent GmbH, priority 2011, dated 2016).

P70S6K (T412E mutant), sequence (P23443 whole entry T412E): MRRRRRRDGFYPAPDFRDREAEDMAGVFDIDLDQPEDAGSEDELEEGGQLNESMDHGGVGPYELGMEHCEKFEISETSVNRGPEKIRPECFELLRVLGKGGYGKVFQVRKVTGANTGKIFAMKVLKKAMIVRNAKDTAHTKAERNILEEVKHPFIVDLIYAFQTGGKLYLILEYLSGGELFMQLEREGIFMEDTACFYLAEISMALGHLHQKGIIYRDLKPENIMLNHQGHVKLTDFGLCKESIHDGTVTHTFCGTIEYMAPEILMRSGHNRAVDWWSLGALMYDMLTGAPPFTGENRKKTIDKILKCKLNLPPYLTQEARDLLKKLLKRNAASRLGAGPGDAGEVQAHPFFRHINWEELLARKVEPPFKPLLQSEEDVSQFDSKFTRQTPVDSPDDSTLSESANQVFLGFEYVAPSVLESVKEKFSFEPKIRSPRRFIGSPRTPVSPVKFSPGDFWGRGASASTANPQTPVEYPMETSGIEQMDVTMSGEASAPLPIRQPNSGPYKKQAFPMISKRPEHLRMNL

Usually IC50 stands for the point on the concentration scale where inhibition reaches its midpoint. `NC[C@H](c1ccc(C(F)(F)F)cc1)C1CCN(c2ncnc(N)c2-c2cn[nH]c2)CC1` (single isomer, unassigned) [Example 56] displayed an IC50 of 0.022 µM.
In turn, `NC[C@@H](c1ccc(C(F)(F)F)cc1)C1CCN(c2ncnc(N)c2-c2cn[nH]c2)CC1` (single isomer, unassigned) [Example 57] registered a 50% inhibitory concentration (IC50) of 0.0047 µM.
Take `Nc1ncnc(N2CCN(C(CN3CCC3)c3cccc(F)c3)CC2)c1-c1cn[nH]c1` (single isomer, unassigned) [Example 84, 6-{4-[2-Azetidin-1-yl-1-(3-fluoro-phenyl)-ethyl]-piperazin-1-yl}-5-(1H-pyrazol-4-yl)-pyrimidin-4-ylamine]: the IC50 worked out at 15 µM.
In turn, `N#Cc1ccc(C(CN2CCC2)N2CCN(c3ncnc(N)c3-c3cn[nH]c3)CC2)cc1` (single isomer, unassigned) [Example 85, 4-(1-{4-[6-Amino-5-(1H-pyrazol-4-yl)-pyrimidin-4-yl]-piperazin-1-yl}-2-azetidin-1-yl-ethyl)-benzonitrile] came in with an IC50 of 2.8 µM.
The compound `COC(=O)c1ccc(C(CN2CCC2)N2CCN(c3ncnc(N)c3-c3cn[nH]c3)CC2)cc1` (single isomer, unassigned) [Example 86, 4-(1-{4-[6-Amino-5-(1H-pyrazol-4-yl)-pyrimidin-4-yl]-piperazin-1-yl}-2-azetidin-1-yl-ethyl)-benzoic acid methyl ester] came in with an IC50 of 6.4 µM.
As for `Nc1ncnc(N2CC[C@](N)(CNC(=O)c3ccc(F)cc3F)C2)c1-c1ccc(F)cc1` (single isomer, unassigned) [Example 249], the IC50 worked out at 0.0059 µM.
`Nc1ncnc(N2CCN(C(CN3CCCC3)c3ccc(F)cc3)CC2)c1-c1ccc(F)cc1` (stereo in doubt) [Example 82, (R)5-(4-Fluorophenyl)-6{4-[1-(4-fluorophenyl)-2-pyrrolidin-1-yl-ethyl]-piperazin-1-yl}-pyrimidin-4-ylamine] yielded an IC50 of 0.029 µM.
`Nc1ncnc(N2CCN(C(CN3CCCC3)c3ccc(F)cc3)CC2)c1-c1ccc(F)cc1` (stereo in doubt) [Example 83, (S)-5-(4-Fluorophenyl)-6{4-[1-(4-fluorophenyl)-2-pyrrolidin-1-yl-ethyl]-piperazin-1-yl}-pyrimidin-4-ylamine] returned a 50% inhibitory concentration (IC50) of 1 µM.
The value for `NCC(c1ccc(C(F)(F)F)cc1)N1CCN(c2ncnc(N)c2Br)CC1` (stereo not shown) [Example 1, 6-{4-[2-Amino-1-(4-trifluoromethyl-phenyl)-ethyl]-piperazin-1-yl}-5-bromo-pyrimidin-4-ylamine] was 0.0058 µM; that for `NCC(c1ccc(C(F)(F)F)cc1)N1CCN(c2ncnc(N)c2-c2ccc(F)cc2)CC1` (stereo not shown) [Example 2, 6-{4-[2-Amino-1-(4-trifluoromethyl-phenyl)-ethyl]-piperazin-1-yl}-5-(4-fluoro-phenyl)-pyrimidin-4-ylamine] was 0.0022 µM.
In turn, `NC[C@H](c1ccc(C(F)(F)F)cc1)N1CCN(c2ncnc(N)c2-c2ccc(F)cc2)CC1` [Example 3, 6-{4-[(S)-2-Amino-1-(4-trifluoromethyl-phenyl)-ethyl]-piperazin-1-yl}-5-(4-fluoro-phenyl)-pyrimidin-4-ylamine] registered an IC50 of 0.0026 µM.
As for `NC[C@@H](c1ccc(C(F)(F)F)cc1)N1CCN(c2ncnc(N)c2-c2ccc(F)cc2)CC1` [Example 4, 6-{4-[(R)-2-Amino-1-(4-trifluoromethyl-phenyl)-ethyl]-piperazin-1-yl}-5-(4-fluoro-phenyl)-pyrimidin-4-ylamine], half-maximal inhibition (IC50) was put at 0.0045 µM.
In turn, `NCC(c1ccccc1)N1CCN(c2ncnc(N)c2Br)CC1` (stereo not shown) [Example 5, 6-[4-(2-Amino-1-phenyl-ethyl)-piperazin-1-yl]-5-bromo-pyrimidin-4-ylamine] had an IC50 of 0.33 µM.
`NCC(c1ccccc1)N1CCN(c2ncnc(N)c2-c2ccc(F)cc2)CC1` (stereo not shown) [Example 6, 6-[4-(2-Amino-1-phenyl-ethyl)-piperazin-1-yl]-5-(4-fluoro-phenyl)-pyrimidin-4-ylamine] returned an IC50 of 0.0063 µM.
The compound `NCC(c1ccc(C(F)(F)F)cc1)N1CCN(c2ncnc(N)c2-c2cn[nH]c2)CC1` (stereo not shown) [Example 7, 6-{4-[2-Amino-1-(4-trifluoromethyl-phenyl)-ethyl]-piperazin-1-yl}-5-(1H-pyrazol-4-yl)-pyrimidin-4-ylamine] had an IC50 of 0.0028 µM.
The value for `NC[C@H](c1ccc(C(F)(F)F)cc1)N1CCN(c2ncnc(N)c2-c2cn[nH]c2)CC1` [Example 8, (S)-6-(4-(2-amino-1-(4-(trifluoromethyl)phenyl)ethyl)piperazin-1-yl)-5-(1H-pyrazol-4-yl)pyrimidin-4-amine] was 0.0034 µM; that for `NC[C@@H](c1ccc(C(F)(F)F)cc1)N1CCN(c2ncnc(N)c2-c2cn[nH]c2)CC1` [Example 9, (R)-6-(4-(2-amino-1-(4-(trifluoromethyl)phenyl)ethyl)piperazin-1-yl)-5-(1H-pyrazol-4-yl)pyrimidin-4-amine] was 0.0057 µM.
Take `Nc1ncnc(N2CCN(C(CN3CCCC3)c3ccc(C(F)(F)F)cc3)CC2)c1-c1ccc(F)cc1` (stereo not shown) [Example 10, 5-(4-fluorophenyl)-6-(4-(2-(pyrrolidin-1-yl)-1-(4-(trifluoromethyl)-phenyl)-ethyl)-piperazin-1-yl)-pyrimidin-4-amine]: the IC50 came to 0.031 µM.
Compound `Nc1ncnc(N2CCN(C(CN3CCCCC3)c3ccc(C(F)(F)F)cc3)CC2)c1Br` (stereo not shown) [Example 11, 5-bromo-6-(4-(2-(piperidin-1-yl)-1-(4-(trifluoromethyl)phenyl)ethyl)piperazin-1-yl)pyrimidin-4-amine] showed a concentration for half-maximal inhibition (IC50) of 0.28 µM.
The compound `Nc1ncnc(N2CCN(C(CN3CCCCC3)c3ccc(C(F)(F)F)cc3)CC2)c1-c1ccc(F)cc1` (stereo not shown) [Example 12, 5-(4-Fluoro-phenyl)-6-{4-[2-piperidin-1-yl-1-(4-trifluoromethyl-phenyl)-ethyl]-piperazin-1-yl}-pyrimidin-4-ylamine] came in with an IC50 of 0.018 µM.
`Nc1ncnc(N2CCN(Cc3ccc(C(F)(F)F)cc3)CC2)c1-c1ccc(F)cc1` [Example 13, 5-(4-Fluoro-phenyl)-6-[4-(4-trifluoromethyl-benzyl)-piperazin-1-yl]-pyrimidin-4-ylamine] displayed an IC50 of 0.0072 µM.
The compound `CN(C)CC(c1ccc(C(F)(F)F)cc1)N1CCN(c2ncnc(N)c2Br)CC1` (stereo not shown) [Example 14, 5-bromo-6-(4-(2-(dimethylamino)-1-(4-(trifluoromethyl)phenyl)ethyl)piperazin-1-yl)pyrimidin-4-amine] gave an IC50 of 0.038 µM.
The value for `CN(C)CC(c1ccc(C(F)(F)F)cc1)N1CCN(c2ncnc(N)c2-c2ccc(F)cc2)CC1` (stereo not shown) [Example 15, 6-(4-(2-(dimethylamino)-1-(4-(trifluoromethyl)phenyl)ethyl)piperazin-1-yl)-5-(4-fluorophenyl)pyrimidin-4-amine] was 0.0049 µM; that for `CN(C)C[C@H](c1ccc(C(F)(F)F)cc1)N1CCN(c2ncnc(N)c2-c2ccc(F)cc2)CC1` [Example 16, (S)-6-(4-(2-(dimethylamino)-1-(4-(trifluoromethyl)phenyl)ethyl)piperazin-1-yl)-5-(4-fluorophenyl)pyrimidin-4-amine] was 0.0049 µM.
Then `CN(C)C[C@@H](c1ccc(C(F)(F)F)cc1)N1CCN(c2ncnc(N)c2-c2ccc(F)cc2)CC1` [Example 17, (R)-6-(4-(2-(dimethylamino)-1-(4-(trifluoromethyl)phenyl)ethyl)piperazin-1-yl)-5-(4-fluorophenyl)pyrimidin-4-amine], with 0.0017 µM; and `CN(C)CCNC(=O)C(c1ccc(C(F)(F)F)cc1)N1CCN(c2ncnc(N)c2-c2ccc(F)cc2)CC1` (stereo not shown) [Example 18, 2-(4-(6-amino-5-(4-fluorophenyl)pyrimidin-4-yl)piperazin-1-yl)-N-(2-(dimethylamino)ethyl)-2-(4-(trifluoromethyl)phenyl)acetamide], with 0.018 µM.
For the compound `C=Cc1c(N)ncnc1N1CCN(C(CN)c2ccc(C(F)(F)F)cc2)CC1` (stereo not shown) [Example 19, 6-(4-(2-amino-1-(4-(trifluoromethyl)-phenyl)ethyl)piperazin-1-yl)-5-vinylpyrimidin-4-amine], the midpoint of inhibition, the IC50, lay at 0.019 µM.
`CN(C)CC(c1ccc(C(F)(F)F)cc1)N1CCN(c2ncnc(N)c2-c2ccc(N)nc2)CC1` (stereo not shown) [Example 20, 5-(6-aminopyridin-3-yl)-6-(4-(2-(dimethylamino)-1-(4-(trifluoromethyl)-phenyl)ethyl)piperazin-1-yl)pyrimidin-4-amine] showed an IC50 of 0.069 µM.
With `C=Cc1c(N)ncnc1N1CCN(C(CN(C)C)c2ccc(C(F)(F)F)cc2)CC1` (stereo not shown) [Example 21, 6-(4-(2-(dimethylamino)-1-(4-(trifluoromethyl)phenyl)ethyl)piperazin-1-yl)-5-vinylpyrimidin-4-amine], the IC50 was 0.035 µM.
In the case of `CN(C)CC(c1ccc(C(F)(F)F)cc1)N1CCN(c2ncnc(N)c2-c2ccc(C(C)(C)O)cc2)CC1` (stereo not shown) [Example 22, 2-(4-(4-amino-6-(4-(2-(dimethylamino)-1-(4-(trifluoromethyl)phenyl)ethyl)-piperazin-1-yl)pyrimidin-5-yl)phenyl)propan-2-ol], the IC50 is 0.02 µM.
Regarding `COC(=O)c1ccc(-c2c(N)ncnc2N2CCN(C(CN(C)C)c3ccc(C(F)(F)F)cc3)CC2)cc1` (stereo not shown) [Example 23, Methyl 4-(4-amino-6-(4-(2-(dimethylamino)-1-(4-(trifluoromethyl)phenyl)ethyl)piperazin-1-yl)pyrimidin-5-yl)benzoate], the half-inhibitory concentration (IC50) is 0.012 µM.
